Test results taken from ChEMBL document CHEMBL1828558, “Discovery of (+)-N-(3-aminopropyl)-N-[1-(5-benzyl-3-methyl-4-oxo-[1,2]thiazolo[5,4-d]pyrimidin-6-yl)-2-methylpropyl]-4-methylbenzamide (AZD4877), a kinesin spindle protein inhibitor and potential anticancer agent” (J Med Chem, 2011).
Values after ≈ are worked out from the molar mass of the structure shown. Active and inactive are the calls of the source. No cut-off for these calls is given here.

What was measured:
[1] = biological target: T1, Kinesin-like protein KIF11 (Homo sapiens, UniProt P52732); test: Inhibition of human recombinant C-terminal His6-tagged KSP ATPase activity after 1 hr by malachite green assay
T1 sequence (P52732 whole entry): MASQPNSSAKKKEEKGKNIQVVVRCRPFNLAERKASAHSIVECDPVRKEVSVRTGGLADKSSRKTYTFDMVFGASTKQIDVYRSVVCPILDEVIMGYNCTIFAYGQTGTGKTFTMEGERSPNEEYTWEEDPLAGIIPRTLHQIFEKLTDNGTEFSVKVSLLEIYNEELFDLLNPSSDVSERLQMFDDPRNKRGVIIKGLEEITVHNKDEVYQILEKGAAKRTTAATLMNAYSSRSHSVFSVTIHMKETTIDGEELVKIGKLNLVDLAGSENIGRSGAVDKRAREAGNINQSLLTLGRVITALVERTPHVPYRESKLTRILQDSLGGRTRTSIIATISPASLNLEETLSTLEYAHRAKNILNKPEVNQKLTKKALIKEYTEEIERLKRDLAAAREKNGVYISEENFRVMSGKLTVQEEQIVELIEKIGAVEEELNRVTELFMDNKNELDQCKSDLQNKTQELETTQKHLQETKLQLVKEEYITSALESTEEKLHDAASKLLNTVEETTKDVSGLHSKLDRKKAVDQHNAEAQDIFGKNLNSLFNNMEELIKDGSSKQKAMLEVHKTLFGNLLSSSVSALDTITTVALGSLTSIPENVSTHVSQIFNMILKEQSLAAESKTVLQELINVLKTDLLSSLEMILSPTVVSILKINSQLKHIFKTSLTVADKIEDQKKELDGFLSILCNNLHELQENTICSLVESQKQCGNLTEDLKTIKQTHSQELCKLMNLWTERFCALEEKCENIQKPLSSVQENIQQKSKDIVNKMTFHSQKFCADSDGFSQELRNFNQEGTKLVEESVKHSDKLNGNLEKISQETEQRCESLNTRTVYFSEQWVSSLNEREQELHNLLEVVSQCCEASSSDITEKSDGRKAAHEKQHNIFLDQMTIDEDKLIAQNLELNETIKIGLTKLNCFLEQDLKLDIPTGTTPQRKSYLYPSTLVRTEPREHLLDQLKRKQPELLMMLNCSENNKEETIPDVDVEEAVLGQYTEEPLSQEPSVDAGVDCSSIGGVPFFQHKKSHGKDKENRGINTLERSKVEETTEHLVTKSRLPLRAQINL

COLO 205 = test: Anticancer activity against human COLO205 cells after 72 hrs by MTS/PMS assay; format: functional, cell-based
[2] = Aqueous solubility of the compound in 0.1 M phosphate buffer at pH 7.4 after 24 hrs by HPLC-UV method; format: physicochemical
Cavia porcellus [3] = organism: Cavia porcellus; test: Binding affinity to L-type calcium channel phenylalkylamine binding site in guinea pig ileum at 10 uM by radioligand displacement assay; format: tissue-based
[4] = biological target: Somatostatin receptor type 1 (Homo sapiens) (UniProt P30872); test: Binding affinity to human SST1 receptor at 10 uM by radioligand displacement assay
Sequence of Somatostatin receptor type 1 (Homo sapiens) (P30872 whole entry): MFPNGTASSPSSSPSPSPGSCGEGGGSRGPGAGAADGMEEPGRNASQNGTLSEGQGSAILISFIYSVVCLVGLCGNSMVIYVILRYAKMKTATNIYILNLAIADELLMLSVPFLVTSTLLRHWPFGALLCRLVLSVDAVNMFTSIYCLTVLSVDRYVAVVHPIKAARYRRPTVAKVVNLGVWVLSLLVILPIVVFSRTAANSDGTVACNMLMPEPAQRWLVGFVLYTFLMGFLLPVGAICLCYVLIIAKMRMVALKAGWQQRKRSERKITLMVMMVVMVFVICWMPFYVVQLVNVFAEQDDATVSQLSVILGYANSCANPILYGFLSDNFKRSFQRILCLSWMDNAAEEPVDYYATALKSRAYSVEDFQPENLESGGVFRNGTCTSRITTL

[5] = biological target: T2, Polyunsaturated fatty acid 5-lipoxygenase (Homo sapiens) (UniProt P09917); test: Inhibition of human 5-lipoxygenase at 10 uM
T2 sequence (whole entry): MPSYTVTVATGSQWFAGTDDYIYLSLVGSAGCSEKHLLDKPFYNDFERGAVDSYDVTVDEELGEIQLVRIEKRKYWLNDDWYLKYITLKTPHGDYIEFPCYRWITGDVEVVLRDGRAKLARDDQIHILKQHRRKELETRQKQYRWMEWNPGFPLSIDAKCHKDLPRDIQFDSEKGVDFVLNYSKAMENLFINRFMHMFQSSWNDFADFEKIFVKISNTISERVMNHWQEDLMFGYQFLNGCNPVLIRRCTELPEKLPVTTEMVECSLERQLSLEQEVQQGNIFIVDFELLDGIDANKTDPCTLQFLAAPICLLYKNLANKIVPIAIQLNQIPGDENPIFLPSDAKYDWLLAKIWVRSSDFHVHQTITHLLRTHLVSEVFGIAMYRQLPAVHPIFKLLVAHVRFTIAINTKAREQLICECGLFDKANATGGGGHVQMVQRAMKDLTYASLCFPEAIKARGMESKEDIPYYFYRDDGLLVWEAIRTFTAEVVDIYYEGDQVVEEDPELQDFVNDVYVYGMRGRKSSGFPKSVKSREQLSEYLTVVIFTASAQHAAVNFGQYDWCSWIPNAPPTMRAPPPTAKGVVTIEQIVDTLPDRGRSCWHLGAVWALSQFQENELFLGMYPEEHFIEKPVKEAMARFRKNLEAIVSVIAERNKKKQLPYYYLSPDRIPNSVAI

Rattus norvegicus [6] = test: Increase in caspase 3 activation in Hans Wistar rat hollow fiber model implanted with human COLO205 cells at 6 mg/kg, iv after 48 hrs; format: functional, organism-based; design: dose 6 mg/kg; conditions: COLO 205
Rattus norvegicus [7] = test: Increase in caspase 3 activation in Hans Wistar rat hollow fiber model implanted with human COLO205 cells at 12 mg/kg, iv after 48 hrs; format: functional, organism-based; design: dose 12 mg/kg; conditions: COLO 205
Rattus norvegicus [8] = test: Increase monasters formation in Hans Wistar rat hollow fiber model implanted with human COLO205 cells at 6 mg/kg, iv after 24 hrs; format: functional, organism-based; design: dose 6 mg/kg; conditions: COLO 205
Rattus norvegicus [9] = test: Increase monasters formation in Hans Wistar rat hollow fiber model implanted with human COLO205 cells at 6 mg/kg, iv after 48 hrs; format: functional, organism-based; design: dose 6 mg/kg; conditions: COLO 205
Rattus norvegicus [10] = test: Increase monasters formation in Hans Wistar rat hollow fiber model implanted with human COLO205 cells at 12 mg/kg, iv after 24 hrs; format: functional, organism-based; design: dose 12 mg/kg; conditions: COLO 205
Rattus norvegicus [11] = test: Increase monasters formation in Hans Wistar rat hollow fiber model implanted with human COLO205 cells at 12 mg/kg, iv after 48 hrs; format: functional, organism-based; design: dose 12 mg/kg; conditions: COLO 205
Rattus norvegicus [12] = test: Increase of phospho-histone-H3 positive cells in Hans Wistar rat hollow fiber model implanted with human COLO205 cells at 6 mg/kg, iv after 24 hrs; format: functional, organism-based; design: dose 6 mg/kg; conditions: COLO 205
Rattus norvegicus [13] = test: Increase of phospho-histone-H3 positive cells in Hans Wistar rat hollow fiber model implanted with human COLO205 cells at 12 mg/kg, iv after 24 hrs; format: functional, organism-based; design: dose 12 mg/kg; conditions: COLO 205
[14] = biological target: Tyrosine-protein kinase Lck (Homo sapiens) (UniProt P06239); test: Inhibition of LCK at 10 uM
Sequence of Tyrosine-protein kinase Lck (Homo sapiens) (P06239 2-509 limits assumed): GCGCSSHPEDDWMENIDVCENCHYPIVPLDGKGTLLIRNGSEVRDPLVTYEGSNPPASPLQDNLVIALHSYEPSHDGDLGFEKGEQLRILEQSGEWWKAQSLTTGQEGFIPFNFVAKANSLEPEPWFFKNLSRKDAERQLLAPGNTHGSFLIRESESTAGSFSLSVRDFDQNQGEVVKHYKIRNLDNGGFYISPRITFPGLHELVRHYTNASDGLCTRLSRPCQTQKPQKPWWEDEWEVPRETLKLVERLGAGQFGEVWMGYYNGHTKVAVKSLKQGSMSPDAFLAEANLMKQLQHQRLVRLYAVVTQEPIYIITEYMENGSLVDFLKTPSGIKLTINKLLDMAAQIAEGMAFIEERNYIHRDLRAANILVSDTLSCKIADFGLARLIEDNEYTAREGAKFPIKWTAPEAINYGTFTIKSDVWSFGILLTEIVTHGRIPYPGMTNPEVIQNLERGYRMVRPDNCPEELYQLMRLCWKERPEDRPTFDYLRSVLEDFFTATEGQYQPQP

[15] = biological target: Ribosomal protein S6 kinase alpha-1 (Homo sapiens) (UniProt Q15418); test: Inhibition of MAPKAP-K1a at 10 uM
Sequence of Ribosomal protein S6 kinase alpha-1 (Homo sapiens) (Q15418 whole entry): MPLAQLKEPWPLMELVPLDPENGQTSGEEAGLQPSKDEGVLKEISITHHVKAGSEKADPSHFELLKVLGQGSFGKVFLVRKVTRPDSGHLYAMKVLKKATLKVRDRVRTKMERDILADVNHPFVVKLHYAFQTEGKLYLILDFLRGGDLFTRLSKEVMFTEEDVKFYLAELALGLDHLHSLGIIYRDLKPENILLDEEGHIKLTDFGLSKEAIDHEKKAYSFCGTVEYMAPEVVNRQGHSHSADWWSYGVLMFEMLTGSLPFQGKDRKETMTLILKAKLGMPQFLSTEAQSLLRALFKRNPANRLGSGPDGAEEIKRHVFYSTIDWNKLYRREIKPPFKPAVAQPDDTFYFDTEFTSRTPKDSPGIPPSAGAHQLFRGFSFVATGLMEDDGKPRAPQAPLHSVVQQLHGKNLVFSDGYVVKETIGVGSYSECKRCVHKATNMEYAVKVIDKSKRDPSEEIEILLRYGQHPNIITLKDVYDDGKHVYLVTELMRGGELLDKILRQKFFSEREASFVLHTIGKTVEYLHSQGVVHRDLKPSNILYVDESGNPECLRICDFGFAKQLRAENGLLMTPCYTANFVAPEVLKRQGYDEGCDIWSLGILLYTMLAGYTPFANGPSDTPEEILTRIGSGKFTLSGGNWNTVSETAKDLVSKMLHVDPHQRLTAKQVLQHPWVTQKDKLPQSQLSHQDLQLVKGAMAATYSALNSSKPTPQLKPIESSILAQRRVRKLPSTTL

Cavia porcellus [16] = organism: Cavia porcellus; test: Binding affinity to sodium channel site 2 in guinea pig atria at 10 uM by radioligand displacement assay
Cavia porcellus [17] = organism: Cavia porcellus; test: Binding affinity to L-type calcium channel benzothiazepine binding site in guinea pig ileum at 10 uM by radioligand displacement assay; format: tissue-based
[18] = Clearance in nude mouse; format: ADME, organism-based; conditions: in vivo

SMILES	IC50 [1] [nM]	IC50 (COLO 205; colo 205) [nM]	solubility at 24 h [2] [µM]	IC50 (COLO 205; Homo sapiens, COLO 205, 72 h) [nM]	other results
CCC(c1nc2snc(C)c2c(=O)n1Cc1ccccc1)N(CCCN)C(=O)c1ccc(C)cc1 (stereo in doubt; 62)	3	4	1570 (≈ 770 µg/mL)	–	–
CCC(c1nc2sccc2c(=O)n1Cc1ccccc1)N(CCCN)C(=O)c1ccc(C)cc1 (stereo in doubt; 56)	8	30	1240 (≈ 588 µg/mL)	–	–
Cc1ccc(C(=O)N(CCCN)C(c2nc3snc(C)c3c(=O)n2Cc2ccccc2)C(C)C)cc1 (single isomer, unassigned; (+))	–	–	–	–	inhibition (Cavia porcellus [3]): 76%; inhibition [4]: 80%; inhibition [5]: 71%; Activity (Rattus norvegicus [6]): Active; Activity (Rattus norvegicus [7]): Active; Activity (Rattus norvegicus [8]): Active; Activity (Rattus norvegicus [9]): Active; Activity (Rattus norvegicus [10]): Active; Activity (Rattus norvegicus [11]): Active; Activity (Rattus norvegicus [12]): Active; Activity (Rattus norvegicus [13]): Active; inhibition [14]: 42%; inhibition [15]: 35%; inhibition (Cavia porcellus [16]): 99%; inhibition (Cavia porcellus [17]): 87%
CCC(c1nc2ccsc2c(=O)n1Cc1ccccc1)N(CCCN)C(=O)c1ccc(C(C)C)cc1 (configuration not stated)	940	–	–	3300	–
CCC(c1nc2sccc2c(=O)n1Cc1ccccc1)N(CCCN)C(=O)c1ccc(C)cc1 (single isomer, unassigned; (+))	3	8	–	–	–
CCC(c1nc2ccsc2c(=O)n1Cc1ccccc1)N(CCCN)C(=O)c1ccc(Cl)cc1 (configuration not stated)	50	–	–	200	–
CCC(c1nc2snc(C)c2c(=O)n1Cc1ccccc1)N(CCCN)C(=O)c1ccc(C)cc1 (stereo in doubt; 68)	1	–	–	3	clearance [18]: 50 mL/min/kg
CCC(c1nc2onc(C)c2c(=O)n1Cc1ccccc1)N(CCCN)C(=O)c1ccc(C)cc1 (configuration not stated)	16	–	69 (≈ 32.7 µg/mL)	23	–
CCC(c1nc2ccsc2c(=O)n1CC1CC1)N(CCCN)C(=O)c1ccc(C)cc1 (configuration not stated)	760	–	–	3080	–
CCC(c1nc2ccsc2c(=O)n1Cc1ccccc1)N(CCCN)C(=O)c1ccc(C)c(F)c1 (configuration not stated)	20	–	–	60	–
